Results on two compounds are retold here after patent publication US8652846B2, “Medium derived from stem cells as a pharmaceutical composition” (Omnicyte Limited, priority 2008, dated 2014).

For data set [1], the system named is Rat liver cells. Nature of the data set: Bilirubin levels of liver cells exposed to thioacetamide, OmniCytes without cell contact. To be noted: liver cells exposed to TAA only. In kind it is cell-based. How it is done: (§1) Rat liver cells were exposed to the hepatotoxin thioacetamide (TAA), which induces liver damage such as cirrhosis and fibrosis. The control was only exposed to TAA, whereas the experimental group was also exposed to OmniCytes without cell contact. Cell viability (expressed as mitochondrial dehydrogenase activity) was assessed.
Liver function was also assayed by measuring bilirubin levels. Aberrantly high levels of bilirubin are typically indicative of a liver disorder or malfunction.

In data set [2] the test system is Rat liver cells. Nature of the data set: Viability of liver cells exposed to thioacetamide (mitochondrial dehydrogenase activity), OmniCytes without cell contact. To be noted: rat liver cells exposed to TAA only. In kind it is cell-based. The protocol: as §1
Data set [3] relates to A549 lung cancer cell line. Briefly: Apoptosis of A549 cells with OmniCytes in Transwell assay (no cell contact), FACS Annexin V/7-AAD. In kind it is cell-based, human. To be noted: A549, control group: staurosporine alone, Transwell with membrane. How it is done: (§2) Human non-small-cell lung cancer line A549 was obtained from American Type Culture Collection (catalogue number CCL-185, Rockville, Md., USA) and grown in Ham's F 12-K medium supplemented with 10% fetal bovine serum and 1% penicillin/streptomycin in a 37° C. humidified incubator with 5% CO2.
(§3) 3×10^5 cancer cells were plated into the bottom of 24 mm Transwell 6 well plates with or without […] pore polycarbonate membrane insert (Corning Life Sciences, USA) with 2 mL of the appropriate cell culture medium. […]
(§4) To determine effect of OmniCytes on apoptosis, 3×10^5 OmniCytes were added 24 hours after the onset of apoptosis induction either to the top of the Transwell insert with 1 ml α-MEM (Gibco, UK) supplemented with 30% FBS (Gibco, UK) and 10% GM-MIX (for no contact conditions) or directly into the same well as the cells (for contact conditions). […] After 24 or 48 hours the inserts were removed and the cancer cells analysed for apoptosis and Bcl-2, Bcl-xL and Bax expression.
(§5) Apoptosis was analysed using the method of staining with fluorescein isothiocyanate (FITC)-Annexin V and 7-AAD-FITC previously described by Ikewaki et al. (2007). […] FITC-Annexin V staining was measured in FL1-H and FITC-7-AAD staining in FL3-H. […]

The test system of the next data set is A549 lung cancer cells. Briefly: TNF-alpha blocking antibody study: A549 cells with staurosporine and OmniCytes without direct cell contact. To be noted: A549, control: staurosporine, OmniCyte-free. It is filed as cell-based, human. How it is done:
The effect of TNF-alpha blocking antibodies was tested. A549 lung cancer cells were exposed to staurosporine and OmniCytes were added without direct cell contact. The control was OmniCyte-free. TNF-alpha blocking antibodies (Abeam™, Cambridge, UK) at two different concentrations (5 or 10 μg/mL) were added.

In data set [4] the test system is A549 lung cancer cell line. Briefly: Apoptosis of A549 cells co-cultured with OmniCytes (direct cell contact), FACS Annexin V/7-AAD. In kind it is cell-based, human. The conditions noted are these: A549, control group: staurosporine alone, plate without membrane. How it is done:
as §2, §3, §4, §5

Data set [5] deals with A549 lung cancer cell line. Nature of the data set: Apoptosis of A549 cells with OmniCytes in Transwell assay (no cell contact), DAPI nuclear staining, immuno-fluorescent microscopy. In kind it is cell-based, human. To be noted: A549, control group: staurosporine alone. How it is done:
3×10^5 cancer cells were plated into the bottom of 24 mm Transwell 6 well plates with or without […] pore polycarbonate membrane insert (Corning Life Sciences, USA) with 2 mL of the appropriate cell culture medium. Transwell plates with a polycarbonate membrane insert allow the exchange of soluble factors but prevent cell-cell contact, whereas Transwell plates without the membrane allow cell to cell contact. After 24 hours apoptosis was induced in cancer cells according to the designated protocol. Cells were incubated at 37° C. in 5% CO2/95% air. […]
as §4
10^5 cells were fixed using 4% paraformaldehyde (PFA) for 15 minutes at room temperature and washed 3 times with PBS (Gibco, UK). […] Cells were visualised on a Zeiss fluorescent microscope and analysed using the Metamorph programme. […]
For each sample, a minimum of 5 random fields were assessed and at least 250 cells were counted. […]

Regarding `CC(=N)S` [TAA, thioacetamide], the bilirubin levels result in the data set with Rat liver cells [1] is “caused bilirubin levels to rise”. Moreover, in the data set on Rat liver cells [2], the “cell viability (mitochondrial dehydrogenase activity)” value is “significantly decreased cell viability”.
In the case of `CN[C@@H]1C[C@H]2O[C@@](C)([C@@H]1OC)n1c3ccccc3c3c4c(c5c6ccccc6n2c5c31)C(=O)NC4` [staurosporine], the “apoptosis (Annexin V positive cells)” value in data set [3] is on record as 26.85%±2.15. Also, the apoptosis with A549 lung cancer cells is recorded as 22.13%±0.74. Further, in data set [4], the “mean of apoptosis (Annexin V positive cells)” value is listed as 22.77%±4.87. The “apoptosis by nuclear staining (DAPI)” value in data set [5] was 18.32%±1.81.
